Tested on: Pseudomonas aeruginosa MB 2835
Assay: In vivo activity against Pseudomonas aeruginosa MB 2835 systemic infections in mice (Table X)
Set-up: species or system Pseudomonas aeruginosa; CD 1 female mice
Details: for s.c./i.p. ED50 administration ratio: 10080 min; for ED50 i.p.: i.p. at 0 and 6 hours after infection; for ED50 i.p. / ED50 s.c.: multiplied by two doses, 7 days observation; for ED50 s.c.: s.c. at 0 and 6 hours after infection
Method: The in vivo activities of Tejeramycin, components A through G were determined against Pseudomonas aeruginosa MB 2835 infections in mice. Experimental systemic infections were produced in CD 1 female mice (Charles River Breeding Labs., Wilmington, Ma.), average body weight 19-22 grams, by the intraperitoneal (i.p.) injection of a suitably diluted overnight culture of Pseudomonas aeruginosa MB-2835 in brain heart infusion broth (Difco). The challenge dose varied from about 11-50 LD50 's LD50 =median lethal dose, the dose that should kill 50% of the infected, untreated mice). Under these conditions, the infected, untreated mice died within 48 hours.
The antibiotics were administered as aqueous solutions by intraperitoneal or subcutaneous (s.c.) injection at 0 and 6 hours after infection. At least four different dose levels of the antibiotics were used; each dose group consisted of five mice. […] Statist. Assoc. 42: 282-296, 1947.
From rich cuts 1-9e described in Tables III and IV, a series of seven samples were prepared for in vivo evaluation. Sample composition as well as in vivo results are summarized in Table X. Carbenicillin and gentamicin were included as controls.

Compound	s.c./i.p. ED50 administration ratio (Example A)	ED50 i.p. (Example A)	ED50 s.c. (Example A)	s.c./i.p. ED50 administration ratio (Example B)	ED50 i.p. (Example B)	ED50 s.c. (Example B)
CC1(C)S[C@@H]2[C@H](NC(=O)C(C(=O)O)c3ccccc3)C(=O)N2[C@H]1C(=O)O (stereo partly drawn) [Carbenicillin]	3.2	5.31 mg	17.1 mg	1.5	4.14 mg	6.04 mg
Gentamicin	23	0.013 mg	0.30 mg	20	0.0063 mg	0.125 mg

Source: patent US4656036A, “Antibiotics Tejeramycin and production thereof” (Merck & Co., Inc., priority 1985, dated 1987)
